This assay addresses T1, Human TRPV3 (Homo sapiens, UniProt Q8NET8).
T1 construct: expressed in transfected cells; host or cells: CHO cells (selected with G-418)
T1 sequence (Q8NET8 1-790): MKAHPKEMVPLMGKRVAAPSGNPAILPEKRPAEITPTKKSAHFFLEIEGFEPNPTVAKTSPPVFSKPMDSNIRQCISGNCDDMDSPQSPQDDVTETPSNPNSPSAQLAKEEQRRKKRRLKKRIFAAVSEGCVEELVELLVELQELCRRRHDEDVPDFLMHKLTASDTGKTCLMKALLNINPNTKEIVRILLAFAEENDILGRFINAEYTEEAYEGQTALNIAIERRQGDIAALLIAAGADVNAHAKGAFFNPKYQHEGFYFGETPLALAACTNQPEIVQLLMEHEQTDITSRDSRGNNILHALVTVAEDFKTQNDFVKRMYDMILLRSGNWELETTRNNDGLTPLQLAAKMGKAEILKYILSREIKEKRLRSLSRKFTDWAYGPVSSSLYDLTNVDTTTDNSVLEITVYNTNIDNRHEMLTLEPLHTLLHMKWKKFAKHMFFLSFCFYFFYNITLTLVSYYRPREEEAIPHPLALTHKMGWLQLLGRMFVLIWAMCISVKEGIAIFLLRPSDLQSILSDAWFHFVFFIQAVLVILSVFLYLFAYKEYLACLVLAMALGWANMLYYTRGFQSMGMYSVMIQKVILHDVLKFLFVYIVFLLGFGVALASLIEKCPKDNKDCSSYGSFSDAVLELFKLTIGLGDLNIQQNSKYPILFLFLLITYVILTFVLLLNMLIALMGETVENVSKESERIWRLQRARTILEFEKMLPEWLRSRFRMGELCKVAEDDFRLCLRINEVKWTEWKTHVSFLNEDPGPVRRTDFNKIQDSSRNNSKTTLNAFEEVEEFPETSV
As to the kind of experiment: 45Calcium uptake assay: inhibition of 2-APB induced cellular uptake of radioactive calcium. In kind it is cell-based. The conditions noted are these: human TRPV3 expressing CHO cells, 2-APB 500 μM; for inhibition at 1 µM: 1 μM test compound, read-out: Percentage Inhibition (1 μM); for inhibition at 10 µM: 10 μM test compound, read-out: Percentage Inhibition (10 μM); for IC50: class symbol. An excerpt:
The illustrative examples of the present invention are screened for TRPV3 activity according to a modified procedure described in Tóth, A., Kedei, N., Wang, Y. and Blumberg, P. M. Life Sciences (2003), 73, 487-498. The screening of the compounds can be carried out by other methods and procedures known to a person skilled in the art. Such screening methods may be found in (a) Hu, H.-Z. et al. J. Biol. Chem. (2004), 279, 35741-35747; (b) Smith, G. D. et al. Nature (2002), 418, 186-190; (c) Peier, A. M. et al. Science (2002), 296, 2046-2049.
Screening for TRPV3 antagonist using the ^45Calcium uptake assay The inhibition of TRPV3 receptor activation was followed as inhibition of 2-aminoethoxydiphenylborate (2-APB) induced cellular uptake of radioactive calcium. Test compounds were dissolved in dimethyl sulfoxide (DMSO) to prepare 20 mM stock solution and then diluted using plain medium with DMEM/F-12 containing 1.8 mM CaCl2 to get desired concentration. Final concentration of DMSO in the reaction was 0.5% (v/v). Human TRPV3 expressing CHO cells were grown in DMEM/F-12 medium with 10% FBS, 1% penicillin-streptomycin solution, 400 μg/ml of G-418. Cells were seeded 24 h prior to the assay in 96 well plates so as to get ˜50,000 cells per well on the day of experiment. Cells were treated with test compounds for 10 minutes followed by addition of 2-APB at a final concentration of 500 μM and 5 μCi/ml^45Ca^+2 for 4 minutes. Cells were washed and lysed using buffer containing 1% Triton X-100, 0.1% deoxycholate and 0.1% SDS. Radioactivity in the lysate was measured in Packardt Top count after addition of liquid scintillant. Concentration response curves were plotted as a % of maximal response obtained in the absence of test antagonist. IC50 value was calculated from concentration response curve by nonlinear regression analysis using GraphPad PRISM software.
Percentage inhibition at concentrations of 1.0 μM and 10.0 μM are given in the table along with IC50 details for selected examples.

One may read the inhibition as the relative decrease from the control value, in per cent. As for `COc1cccc(/C=C/c2nc3cc(F)c(F)cc3n2-c2ncccc2C#N)c1OC1CCCC1` [Example 61, 2-{2-[(E)-2-(2-Cyclopentyloxy-3-methoxyphenyl)vinyl]-5,6-difluoro-1H-benzimidazol-1-yl}nicotinonitrile], the inhibition at 1 µM was found to be 44.8% and the inhibition at 10 µM was found to be 96%.

As to `COc1cccc(/C=C/c2nc3ccccc3n2-c2nc3ccccc3s2)c1OCC1CC1` [Example 50, 2-{2-[(E)-2-(2-Cyclopropylmethoxy-3-methoxyphenyl)vinyl]-1H-benzimidazol-1-yl}-1,3-benzothiazole], the inhibition at 1 µM stood at 26.1% and the inhibition at 10 µM amounted to 46.6%.

Consider `CCCCCOc1c(/C=C/c2nc3cc(Cl)cnc3n2-c2ccc(C#N)cn2)cccc1OC(F)F` [Example 101, 6-(6-Chloro-2-{(E)-2-[3-(difluoromethoxy)-2-pentyloxyphenyl]vinyl}-3H-imidazo[4,5-b]pyridin-3-yl)nicotinonitrile], for which the inhibition at 1 µM was determined as 30.3% and the inhibition at 10 µM turned out to be 85.2%.

By IC50 is commonly meant the midpoint of a concentration-inhibition curve. Regarding `COc1cccc(/C=C/c2nc3ccccc3n2-c2ccc(C(F)(F)F)cn2)c1OCC1CC1` [Example 26], the inhibition at 1 µM turned out to be 70.6%, the inhibition at 10 µM came to 91.6% and the IC50 was above 500 nM.

On to `COc1cccc(/C=C/c2nc3cc(F)c(Cl)cc3n2-c2ccc(C#N)cn2)c1OC1CCCC1` [Example 70, 6-{6-Chloro-2-[(E)-2-(2-[cyclopentyloxy]-3-methoxyphenyl)vinyl]-5-fluoro-1H-benzimidazol-1-yl}nicotinonitrile], for which the inhibition at 1 µM worked out at 96.2%, the inhibition at 10 µM turned out to be 98.1% and the IC50 is 50 to 100 nM.

Regarding `N#Cc1ccc(-n2c(/C=C/c3cccc(OC(F)F)c3OCC3CCC3)nc3cccnc32)nc1` [Example 97, 6-(2-{(E)-2-[2-(Cyclobutylmethoxy)-3-difluoromethoxyphenyl]vinyl}-3H-imidazo[4,5-b]pyridin-3-yl)nicotinonitrile], the inhibition at 1 µM came to 96%, the inhibition at 10 µM was 99.2% and the IC50 lay within 50 to 100 nM.

With `COc1cccc(/C=C/c2nc3cc(F)c(F)cc3n2-c2ccc(C#N)cn2)c1OCC1CCC1` [Example 67], the inhibition at 1 µM stood at 95.5%, the inhibition at 10 µM stood at 99% and the half-inhibitory concentration (IC50) is below 50 nM.

Take `COc1cccc(/C=C/c2nc3ccccc3n2-c2nccs2)c1OC1CCCC1` [Example 47, 2-[(E)-2-(2-Cyclopentyloxy-3-methoxyphenyl)vinyl]-1-(1,3-thiazol-2-yl)-1H-benzimidazole]: the inhibition at 1 µM is 22.4% and the inhibition at 10 µM turned out to be 79.7%.

As to `CCCCCOc1c(/C=C/c2nc3cc(Cl)cnc3n2-c2ccc(C#N)cn2)cccc1OC` [Example 93, 6-{6-Chloro-2-[(E)-2-(2-pentyloxy-3-methoxyphenyl)vinyl]-3H-imidazo[4,5-b]pyridin-3-yl}nicotinonitrile], the inhibition at 1 µM worked out at 95.2%, the inhibition at 10 µM was determined as 97.6% and the IC50 is 50 to 100 nM.

Regarding `COc1cccc(/C=C/c2nc3ccccc3n2-c2ccc(C)cc2)c1OCC1CC1` [Example 31, 2-[(E)-2-(2-Cyclopropylmethoxy-3-methoxyphenyl)vinyl]-1-(4-methylphenyl)-1H-benzimidazole], the inhibition at 1 µM was determined as 47.3% and the inhibition at 10 µM stood at 86.6%.

With `CCCCCOc1c(/C=C/c2nc3cc(F)c(F)cc3n2-c2ccc(C#N)cn2)cccc1OC(F)F` [Example 82, 6-(2-{(E)-2-[3-(Difluoromethoxy)-2-pentyloxyphenyl]vinyl}-5,6-difluoro-1H-benzimidazol-1-yl)nicotinonitrile], the inhibition at 1 µM was 97%, the inhibition at 10 µM was 98.9% and the IC50 was in the range of 50 to 100 nM.

`CCCCCOc1c(/C=C/c2nc3cc(F)c(F)cc3n2-c2ccc(C#N)cn2)cccc1OC` [Example 65, 6-{5,6-Difluoro-2-[(E)-2-(2-pentoxy-3-methoxyphenyl)vinyl]-1H-benzimidazol-1-yl}nicotinonitrile]: the inhibition at 1 µM is 94.9%, the inhibition at 10 µM amounted to 97.4% and the IC50 is 50 to 100 nM.

As for `COc1cccc(/C=C/c2nc3ccccc3n2-c2ccc(C(F)(F)F)cn2)c1OCc1ccccc1` [Example 28, 2-[(E)-2-(2-Benzyloxy-3-methoxyphenyl)vinyl]-1-[5-(trifluoromethyl)pyridin-2-yl]-1H-benzimidazole], the inhibition at 1 µM stood at 77.1%, the inhibition at 10 µM is 92.6% and the IC50 fell in the range of 100 to 500 nM.

Take `COc1cccc(/C=C/c2nc3ccccc3n2-c2ccc(C(F)(F)F)cn2)c1OC1CCCC1` [Example 27, 2-[(E)-2-(2-Cyclopentyloxy-3-methoxyphenyl)vinyl]-1-[5-(trifluoromethyl)pyridin-2-yl]-1H-benzimidazole]: the inhibition at 1 µM was determined as 41.8% and the inhibition at 10 µM came to 94.7%.

For the compound `COc1cccc(/C=C/c2nc3cccnc3n2-c2ccc(C#N)cn2)c1OCC1CCC1` [Example 90, 6-[2-{(E)-2-[2-(Cyclobutylmethoxy)-3-methoxyphenyl]vinyl}-3H-imidazo[4,5-b]pyridine-3-yl]nicotinonitrile], the inhibition at 1 µM was 93.3%, the inhibition at 10 µM turned out to be 98.2% and the IC50 is 50 to 100 nM.

`COc1cccc(/C=C/c2nc3ccccc3n2-c2ccc(C#N)cc2F)c1OCC1CC1` [Example 39, 4-{2-[(E)-2-(2-Cyclopropylmethoxy-3-methoxyphenyl)vinyl]-1H-benzimidazol-1-yl}-3-fluorobenzonitrile]: the inhibition at 1 µM worked out at 76.8%, the inhibition at 10 µM amounted to 94.2% and the IC50 was in the range of 100 to 500 nM.

For `COc1cccc(/C=C/c2nc3ccccc3n2-c2ncccc2C#N)c1OC1CCCC1` [Example 7, 2-{2-[(E)-2-(2-Cyclopentyloxy-3-methoxyphenyl)vinyl]-1H-benzimidazol-1-yl}nicotinonitrile], the inhibition at 1 µM was 6.4% and the inhibition at 10 µM worked out at 92.8%.

In the case of `COc1cccc(/C=C/c2nc3ccccc3n2-c2ncccc2C(F)(F)F)c1OC1CCCC1` [Example 24, 2-[(E)-2-(2-Cyclopentyloxy-3-methoxyphenyl)vinyl]-1-[3-(trifluoromethyl)pyridin-2-yl]-1H-benzimidazole], the inhibition at 1 µM was found to be 84.7%, the inhibition at 10 µM came to 98% and the IC50 was above 500 nM.

Consider `FC(F)Oc1cccc(/C=C/c2nc3cccnc3n2-c2ccc(OC(F)(F)F)cc2)c1OCC1CCC1` [Example 100, 2-{(E)-2-[2-Cylobutylmethoxy-3-(difluoromethoxy)phenyl]vinyl}-3-[4-(trifluoromethoxy)phenyl]-3H-imidazo[4,5-b]pyridine], for which the inhibition at 1 µM is 66.3% and the inhibition at 10 µM turned out to be 94.9%.

As for `COc1cccc(/C=C/c2nc3ccccc3n2-c2ccc(C#N)cn2)c1OC1CCCC1` [Example 13, 6-{2-[(E)-2-(2-Cyclopentyloxy-3-methoxyphenyl)vinyl]-1H-benzimidazol-1-yl}nicotinonitrile], the inhibition at 1 µM amounted to 89.1%, the inhibition at 10 µM was 95.8% and the IC50 lay within 100 to 500 nM.

Values taken from patent US8344010B2, “Fused imidazole derivatives as TRPV3 antagonist” (Glenmark Pharmaceuticals S.A., priority 2008, dated 2013).
